Results on two compounds are retold here after patent US10669313B2, “Multitarget-directed bio-inorganic hybrid structure” (INDUSTRY-ACADEMIC COOPERATION FOUNDATION, YONSEI UNIVERSITY, priority 2016, dated 2020).

In series [1] the test system is Rev-mediated RRE export (RRE: Rev: Crm1 interactions). The series can be described thus: Nucleocytoplasmic export assay (CAT assay) based on plasmid pDM128 in HeLa cells. Type of series: cell-based, HIV-1. The note with it: HeLa cells co-transfected with pDM128 and pSV2-Rev. The protocol:
Lastly, multitarget-binding and inhibitory capabilities of hetero-SPCHs were examined. To evaluate the inhibition of Rev-mediated RRE export, a nucleocytoplasmic export assay based on plasmid pDM128 expressing RRE (see FIG. 23) was performed.
Referring to FIG. 24, as shown in a chloramphenicol acetyltransferase (CAT) assay (lane 3), co-transfection of pDM128 with pSV2-Rev (Rev-expressing plasmid) in HeLa cells enables an effective nucleocytoplasmic export of RRE RNA. In contrast, negligible CAT activity was observed when the cells were co-transfected with pBluescript KS(+) (negative control plasmid) (lane 2).
In addition, to confirm whether nucleocytoplasmic export mediated by RRE: Rev: Crm1 interactions could be inhibited by peptide-CNT hybrids, the cells were treated with hetero-(A&N)-SPCHs.
HeLa cells were incubated under 5% CO2 at 37° C. in DMEM supplemented with 10% FBS and 1% pen/strep. 4×10^4 of the incubated cells were distributed into a 48-well plate, and then incubated under 5% CO2 at 37° C. overnight. Subsequently, the resulting cells were washed with DPBS, and then a plasmid (total 250 ng; pDM128, pBluescript II KS (+), pSV2-Rev) complexed with 0.7 μL of a jetPEI DNA transfection reagent was added to each well. […]
The samples were normalized with the concentrations of proteins measured by a BCA assay (BCA protein assay kit; Pierce, USA). […]

The test system of series [2] is cyc-ARM peptide on SWCNT (homo-ARM-SPCH) (HIV-1 (Rev ARM, synthetic)). The series can be described thus: competition. The conditions noted are these: hybrid concentration for complete exchange of 6 uM Rev from 100 nM RRE by EMSA; stated about 10,000 times stronger RRE binding than Rev.

In the case of `CCC(=C/[C@H](C)C/C=C/C(C)=C/[C@@H](C)C(=O)[C@@H](C)[C@H](O)[C@@H](C)C/C(C)=C/C(=O)O)/C=C/[C@@H]1OC(=O)C=C[C@@H]1C` [LMB, leptomycin B], in series [1], the “concentration required to completely inhibit the RRE export” value was 100 nM.
Turning to “GGGCGAAUUGGAGCUCGCUAUGUUCCUUGGGUUCUUGGGAGCAGCAGGAAGCACUAUGGGCGCAGUGUCAUUGACGCUGACGGUACAGGCCAGACAAUUAUUGUCUGGUAUAGUGCAACAGCAGAACAAUUUGCUGAGGGCUAUUGAGGCGCAACAACAUCUGUUGCAACUCACAGUCUGGGGCAUCAAGCAGCUCCAGGCAAGAGUCCUGGCUGUGGAAAGAUACCUAAGGGAUCAACAGCUCCUAGGGAUG [full-length RRE RNA transcript (253 nt)]”, the binding in series [2] stood at 600 pM.
